Reference: paper PMC4403042, “Atrial-like cardiomyocytes from human pluripotent stem cells are a robust preclinical model for assessing atrial-selective pharmacology” (EMBO Molecular Medicine, 2015)

Tests used:
hESC-atrial CMs = experiment: Action potential recording (amphotericin-B-perforated patch-clamp) in hESC-atrial CMs; assay type: cell-based, human; conditions: for reversibility of AP changes: washout
Description: (§1) Spin EBs resulting from control and RA-treated differentiations were dissociated at day 17 to single cells using TrypLE™ Select (Life Technologies) and plated on gelatin-coated coverslips. Electrophysiological measurements were performed 10–14 days after dissociation from intrinsically quiescent single GFP^+ CMs that were able to contract upon field stimulation.
(§2) APs and membrane currents from hESC-CMs were recorded with the amphotericin-B-perforated patch-clamp technique at 36 ± 0.2°C using an Axopatch 200B amplifier (Molecular Devices, Sunnyvale, CA, USA). Cells were superfused with Tyrode's solution containing (in mmol/l) NaCl 140, KCl 5.4, CaCl2 1.8, MgCl2 1.0, glucose 5.5, and HEPES 5.0; pH was adjusted to 7.4 with NaOH. Pipettes (borosilicate glass; resistance 2–3 MΩ) were heat polished and filled with solution containing (in mmol/l) K-gluconate 125, KCl 20, NaCl 5, amphotericin-B 0.22 and HEPES 10; pH was adjusted to 7.2 with KOH. AP measurements were low-pass-filtered (cutoff frequency 10 kHz) and digitized at 40 kHz; membrane currents were measured at 1 and 4 kHz, respectively. Capacitance and series resistance were compensated by ≥ 80%, and APs were corrected for the calculated liquid junction potential (Barry & Lynch, [1991]). Voltage control, data acquisition and analysis were accomplished using custom software. Cell membrane capacitance (Cm) was estimated by dividing the time constant of the decay of the capacitive transient in response to 5 mV hyperpolarizing voltage clamp steps from −40 mV by the series resistance.
(§3) APs were elicited at 0.5 to 4 Hz by 3 ms, ∼1.2× threshold current pulses through the patch pipette. APs were characterized, as depicted in Fig2A, by resting membrane potential (RMP), maximum upstroke velocity (dV/dtmax), maximum AP amplitude (APAmax), AP plateau amplitude (APAplat, defined as the potential difference between RMP and potential at 20 ms after the upstroke), and the duration at 20, 50 and 90% repolarization (APD20, APD50, and APD90, respectively). Parameter values obtained from 10 consecutive APs were averaged. […]
(§4) (1:2000, Sigma) was performed in TBS-0.05% Tween 20 containing 2% nonfat milk for 1 hour at room temperature. The corresponding secondary antibody conjugated to horseradish peroxidase (HRP) (1:2000; anti-mouse-HRP (#7076), Cell Signaling) was incubated for 1 h at room temperature in 2% nonfat milk. Blots were developed on X-ray films by using a chemiluminescent detection system (ECL; GE Life Science, […]
(§5) The effects of drugs were tested in paired measurements 5 minutes after the onset of bath application. 4-AP was prepared as a 50 mmol/L stock solution in Tyrode’s solution, and pH adjusted to 7.4, with the addition of HCl. CCh, a muscarinic receptor agonist, was prepared as a 10 mmol/L stock solution in Tyrode’s solution. Nifedipine was prepared as a 10 mmol/L stock solution in DMSO and stored at 4 °C. Stock solutions for the other compounds were prepared in DMSO: Vernakalant (30 mmol/L), XEN- D0101 (3 mmol/L), XEN-R0703 (2 mmol/L) and […]. All stock solutions were diluted appropriately before use.
(§6) Recombinant ion channel pharmacology
(§7) Studies were conducted at room temperature using the whole-cell patch-clamp technique. HEK293 cells expressing Kir3.1/3.4, Kir2.1, and CHO cells expressing Nav1.2, Cav1.2 or hERG were used.

hESC-ventricular CMs = experiment: Action potential recording (amphotericin-B-perforated patch-clamp) in hESC-ventricular CMs; assay type: cell-based, human; conditions: 1 Hz; for APAmax / APAplat / APD20 / dV/dtmax / APD50 / APD90: hESC-VM, n=5, mean±SEM
Description: as §1, §2, §3, §4, §5, §6, §7

[1] = hESC-AM, 4-AP 50 μmol/l, 1 Hz, n=5, mean±SEM, Table S5
[2] = hESC-AM, CCh 10 μmol/l, 1 Hz, n=4, mean±SEM, Table S9
[3] = hESC-AM, CCh 10 μmol/l, 1 Hz, n=5, mean±SEM, Table S5
[4] = XEN-D0101 3 μmol/l, 1 Hz, vs pre-drug
[5] = hESC-AM, XEN-D0101 3 μmol/l, 1 Hz, n=5, mean±SEM, Table S7
[6] = hESC-AM, vernakalant 30 μmol/l, 1 Hz, n=5, mean±SEM, Table S6
[7] = vernakalant 30 μmol/l, 1 Hz, vs pre-drug
[8] = vernakalant 30 μmol/l, Table S6

Question: Which APAmax (hESC-atrial CMs; [1]) does the source give for Nc1ccncc1 [4-AP, 4-aminopyridine] here?
Answer: 94.6±3.0 mV

Question: And the APAplat (hESC-atrial CMs; [1])?
Answer: 86.4±6.5 mV

Question: And the APD20 (hESC-atrial CMs; [1])?
Answer: 41.6 ± 8.1 ms

Question: What about the APD50 (hESC-atrial CMs; [1]) of the same molecule?
Answer: 72 ± 13 ms

Question: And the APAmax (hESC-ventricular CMs; 4-AP 50 μmol/l, Table S5)?
Answer: 99.0±4.0 mV

Question: And the APAplat (hESC-ventricular CMs; 4-AP 50 μmol/l, Table S5)?
Answer: 99.8±5.8 mV

Question: What about the APD20 (hESC-ventricular CMs; 4-AP 50 μmol/l, Table S5) of the same molecule?
Answer: 83.1 ± 15.1 ms

Question: And the dV/dtmax (hESC-ventricular CMs; 4-AP 50 μmol/l, Table S5)?
Answer: 49.9±11.1 V/s

Question: C[N+](C)(C)CCOC(N)=O [CCh, carbachol] was tested. Which APAmax (hESC-atrial CMs; [2]) did it give?
Answer: 88.9±1.4 mV

Question: And the APAplat (hESC-atrial CMs; [2])?
Answer: 72.4±3.1 mV

Question: And the APD20 (hESC-atrial CMs; [2])?
Answer: 23.9 ± 4.6 ms

Question: And the APD50 (hESC-atrial CMs; [2])?
Answer: 68.1 ± 7.7 ms

Question: What about the APD90 (hESC-atrial CMs; [2]) of the same molecule?
Answer: 141.2 ± 12.4 ms

Question: What about the dV/dtmax (hESC-atrial CMs; [2]) of the same molecule?
Answer: 40.0±5.2 V/s

Question: And the APAmax (hESC-atrial CMs; [3])?
Answer: 89.1±1.1 mV

Question: What about the APAplat (hESC-atrial CMs; [3]) of the same molecule?
Answer: 72.6±2.3 mV

Question: And the APD20 (hESC-atrial CMs; [3])?
Answer: 25.4 ± 3.8 ms

Question: And the APD50 (hESC-atrial CMs; [3])?
Answer: 67 ± 6 ms

Question: And the dV/dtmax (hESC-ventricular CMs; CCh 10 μmol/l)?
Answer: 129.9±54 V/s

Question: What about the APAmax (hESC-ventricular CMs; CCh 10 μmol/l, Table S5) of the same molecule?
Answer: 104.4±9.1 mV

Question: And the APD20 (hESC-ventricular CMs; CCh 10 μmol/l, Table S5)?
Answer: 112.9 ± 18.0 ms

Question: And the APAmax (hESC-ventricular CMs; CCh 10 μmol/l, Table S9)?
Answer: 110.5±7.8 mV

Question: What about the APAplat (hESC-ventricular CMs; CCh 10 μmol/l, Table S9) of the same molecule?
Answer: 109.6±7.5 mV

Question: And the APD20 (hESC-ventricular CMs; CCh 10 μmol/l, Table S9)?
Answer: 122.9 ± 17.5 ms

Question: What about the APD50 (hESC-ventricular CMs; CCh 10 μmol/l, Table S9) of the same molecule?
Answer: 181.2 ± 27.6 ms

Question: And the APD90 (hESC-ventricular CMs; CCh 10 μmol/l, Table S9)?
Answer: 230.6 ± 25.7 ms

Question: And the dV/dtmax (hESC-ventricular CMs; CCh 10 μmol/l, Table S9)?
Answer: 154.8±58.3 V/s

Question: With O=C(NCCO)C1CCCN(c2nc(NCc3ccccn3)c3c(-c4ccccc4)csc3n2)C1 (stereo not shown) [XEN-D0101] as the molecule, how does the “change of APA” value (hESC-atrial CMs; [4]) read?
Answer: > 10 mV

Question: What about the “change of dV/dtmax” value (hESC-atrial CMs; [4]) of the same molecule?
Answer: > 8 V/s

Question: And the “elevation of APAplat” value (hESC-atrial CMs; [4])?
Answer: > 26 mV

Question: What about the “prolongation of APD20” value (hESC-atrial CMs; [4]) of the same molecule?
Answer: > 30 ms

Question: What about the “prolongation of APD50” value (hESC-atrial CMs; [4]) of the same molecule?
Answer: > 35 ms

Question: What about the “prolongation of APD90” value (hESC-atrial CMs; [4]) of the same molecule?
Answer: > 23 ms

Question: And the “reversibility of AP changes” value (hESC-atrial CMs; XEN-D0101 3 μmol/l)?
Answer: reversible upon washout

Question: And the APAmax (hESC-atrial CMs; [5])?
Answer: 98.9±5.8 mV

Question: What about the APAplat (hESC-atrial CMs; [5]) of the same molecule?
Answer: 86.8±7.4 mV

Question: And the APD20 (hESC-atrial CMs; [5])?
Answer: 55.7 ± 16.2 ms

Question: And the APD50 (hESC-atrial CMs; [5])?
Answer: 91.3 ± 22.6 ms

Question: What about the APD90 (hESC-atrial CMs; [5]) of the same molecule?
Answer: 156.2 ± 22.8 ms

Question: What about the “effect on AP parameters” value (hESC-ventricular CMs; XEN-D0101 3 μmol/l) of the same molecule?
Answer: did not s ignificantly alter any AP parameter

Question: And the APAmax (hESC-ventricular CMs; XEN-D0101 3 μmol/l, Table S7)?
Answer: 105.3±5.8 mV

Question: And the APAplat (hESC-ventricular CMs; XEN-D0101 3 μmol/l, Table S7)?
Answer: 103.7±6.5 mV

Question: And the APD20 (hESC-ventricular CMs; XEN-D0101 3 μmol/l, Table S7)?
Answer: 101.3 ± 14.0 ms

Question: And the APD50 (hESC-ventricular CMs; XEN-D0101 3 μmol/l, Table S7)?
Answer: 158.4 ± 18.0 ms

Question: What about the APD90 (hESC-ventricular CMs; XEN-D0101 3 μmol/l, Table S7) of the same molecule?
Answer: 237.4 ± 21.9 ms

Question: For COc1ccc(CCO[C@@H]2CCCC[C@H]2N2CC[C@@H](O)C2)cc1OC [vernakalant], which APAmax (hESC-atrial CMs; [6]) is on record?
Answer: 80.3±2.2 mV

Question: What about the APAplat (hESC-atrial CMs; [6]) of the same molecule?
Answer: 73.6±4.9 mV

Question: What about the APD20 (hESC-atrial CMs; [6]) of the same molecule?
Answer: 29.7 ± 4.0 ms

Question: What about the APD50 (hESC-atrial CMs; [6]) of the same molecule?
Answer: 65.4 ± 7.7 ms

Question: What about the APD90 (hESC-atrial CMs; [6]) of the same molecule?
Answer: 177.2 ± 08.2 ms

Question: What about the RMP (hESC-atrial CMs; [6]) of the same molecule?
Answer: -74.2±2.5 mV

Question: And the dV/dtmax (hESC-atrial CMs; [6])?
Answer: 40.4±3.8 V/s

Question: And the “increase of APAmax” value (hESC-atrial CMs; [7])?
Answer: > 2.5 mV

Question: And the “increase of APAplat” value (hESC-atrial CMs; [7])?
Answer: > 20%

Question: What about the “prolongation of APD20” value (hESC-atrial CMs; [7]) of the same molecule?
Answer: > 7.5 ms

Question: And the “prolongation of APD50” value (hESC-atrial CMs; [7])?
Answer: > 15 ms

Question: What about the “prolongation of APD90” value (hESC-atrial CMs; [7]) of the same molecule?
Answer: > 22 ms

Question: And the “reversibility of AP changes” value (hESC-atrial CMs; vernakalant 30 μmol/l)?
Answer: nearly reversible upon washout

Question: And the APAmax (hESC-ventricular CMs; [8])?
Answer: 104±2.2 mV

Question: What about the APAplat (hESC-ventricular CMs; [8]) of the same molecule?
Answer: 101.3±2.8 mV

Question: And the APD20 (hESC-ventricular CMs; [8])?
Answer: 68.6 ± 06.8 ms

Question: What about the APD90 (hESC-ventricular CMs; [8]) of the same molecule?
Answer: 180.0 ± 17.7 ms

Question: And the dV/dtmax (hESC-ventricular CMs; [8])?
Answer: 58.3±6.1 V/s

Question: What about the “effect on AP parameters” value (hESC-ventricular CMs; vernakalant 30 μmol/l) of the same molecule?
Answer: reduced dV/dtmax but without affecting other AP parameters
